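Method: 48-hour compound exposure of cells in 96-well plates, five concentrations, linear interpolation of endpoints. GI50: concentration for 50% inhibition of growth.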 Activity calls are given as the source filed them. Rule as the data show it: active = GI50 up to about 1.1 µM and inactive = higher.
How the values were obtained:
Assay in all cases: NCI-60 cell line screen, 48 h
[1] = test system: UO-31
[2] = test system: LOX IMVI
[3] = test system: UACC-62
[4] = test system: EKVX
[5] = test system: RPMI-8226
[6] = test system: SF-268
[7] = test system: COLO 205
[8] = test system: NCI-H522
[9] = test system: DU-145
[10] = test system: SK-OV-3
[11] = test system: SNB-19
[12] = test system: OVCAR-4
[13] = test system: RXF 393
[14] = test system: BT-549
[15] = test system: 786-0
[16] = test system: HOP-62
[17] = test system: PC-3
[18] = test system: K562
[19] = test system: NCI/ADR-RES
[20] = test system: HCT-116

Row | Structure (SMILES) | GI50 [1] | GI50 [2] | GI50 [3] | GI50 [4] | GI50 [5] | GI50 [6] | GI50 [7] | GI50 [8] | GI50 [9] | GI50 [10] | GI50 [11] | GI50 [12] | GI50 [13] | GI50 [14] | GI50 [15] | GI50 [16] | GI50 [17] | GI50 [18] | GI50 [19] | GI50 [20]
1 | CC(C)=CCC[C@@H](C)C1=C(Nc2ccccc2)C(=O)C(C)=C(O)C1=O | 3.77 µM (inactive) | 3.92 µM (inactive) | 4.03 µM (inactive) | 3.86 µM (inactive) | 9.66 µM (inactive) | 1.73 µM (inactive) | 2.74 µM (inactive) | 3.03 µM (inactive) | 4.59 µM (inactive) | 5.58 µM (inactive) | 3.77 µM (inactive) | 6.62 µM (inactive) | 3.78 µM (inactive) | 3.67 µM (inactive) | 4.75 µM (inactive) | 1.81 µM (inactive) | 3.63 µM (inactive) | 2.92 µM (inactive) | 0.815 µM (active) | 1.53 µM (inactive)
2 | CCOC(=O)/C=C(\C(=O)OCC)n1ccc(=O)[nH]c1=O | 16.9 µM (inactive) | 12.8 µM (inactive) | 16.4 µM (inactive) | 16 µM (inactive) | 13.1 µM (inactive) | 20 µM (inactive) | 2.67 µM (inactive) | 0.684 µM (active) | 31.4 µM (inactive) | 22.4 µM (inactive) | 52.2 µM (inactive) | 19.1 µM (inactive) | 10.6 µM (inactive) | 16.7 µM (inactive) | 4.85 µM (inactive) | 26.9 µM (inactive) | 16.9 µM (inactive) | 4.38 µM (inactive) | 26.2 µM (inactive) | 6.31 µM (inactive)
3 | COc1ccc(N2C(=O)C3c4[nH]c5ccc([N+](=O)[O-])cc5c4C4CCC(C(C)(C)C)CC4C3C2=O)cc1 (configuration not stated) | 16.3 µM (inactive) | 15.2 µM (inactive) | 24 µM (inactive) | 15.5 µM (inactive) | 13.3 µM (inactive) | 10.1 µM (inactive) | 4.82 µM (inactive) | 19.9 µM (inactive) | 32.8 µM (inactive) | > 100 µM (inactive) | 35.7 µM (inactive) | 14.8 µM (inactive) | 3.33 µM (inactive) | 14.5 µM (inactive) | 11.4 µM (inactive) | 24.4 µM (inactive) | 5.21 µM (inactive) | 2.52 µM (inactive) | 9.62 µM (inactive) | 3.24 µM (inactive)
4 | NC(=O)NC(=O)c1cccc(NC(=O)CCl)c1 | 0.168 µM (active) | 0.465 µM (active) | 0.687 µM (active) | 7.01 µM (inactive) | 1.18 µM (inactive) | 1.91 µM (inactive) | 0.394 µM (active) | 1.55 µM (inactive) | 1.36 µM (inactive) | 1.45 µM (inactive) |  | 2.19 µM (inactive) | 1.04 µM (active) | 1.41 µM (inactive) | 1.06 µM (active) | 1.61 µM (inactive) | 1.08 µM (active) | 0.714 µM (active) | 1.65 µM (inactive) | 0.392 µM (active)
5 | CCOC(=O)/C(C(=O)Nc1cccc(C(F)(F)F)c1)=C(/N)N1CCOCC1 |  | > 100 µM (inactive) | > 100 µM (inactive) | > 100 µM (inactive) | > 100 µM (inactive) | > 100 µM (inactive) | > 100 µM (inactive) | > 100 µM (inactive) | > 100 µM (inactive) | > 100 µM (inactive) | > 100 µM (inactive) | > 100 µM (inactive) | > 100 µM (inactive) | > 100 µM (inactive) | > 100 µM (inactive) | > 100 µM (inactive) | > 100 µM (inactive) | > 100 µM (inactive) | > 100 µM (inactive) | > 100 µM (inactive)
6 | CCOc1cc(C=O)c2c(ccc3ccc(OC)c(OC)c32)c1OC | 66.8 µM (inactive) | 32.4 µM (inactive) | 67.8 µM (inactive) | 7.1 µM (inactive) | 15.5 µM (inactive) | > 100 µM (inactive) | 32.5 µM (inactive) | 38.5 µM (inactive) | > 100 µM (inactive) | > 100 µM (inactive) | > 100 µM (inactive) | 51.1 µM (inactive) | > 100 µM (inactive) | 32.4 µM (inactive) | > 100 µM (inactive) |  | 17.7 µM (inactive) | 14.5 µM (inactive) | 17.5 µM (inactive) | 36 µM (inactive)
7 | CC(=O)OCC1OC(OC2CC3C(C)(C)C(=O)CC[C@]3(C)C3CC[C@]45C[C@]4(CCC5[C@@H](C)CC(O)C(O)C(C)(C)O)[C@]23C)C(O)C(O)C1O (some centres not stated) | 18.2 µM (inactive) | 3.72 µM (inactive) | 10.5 µM (inactive) | 16.3 µM (inactive) | 3.56 µM (inactive) | 10.1 µM (inactive) | 5.85 µM (inactive) | 10.6 µM (inactive) | 17.1 µM (inactive) | 15.5 µM (inactive) | 11.3 µM (inactive) | 12.7 µM (inactive) | 10 µM (inactive) | 12.9 µM (inactive) | 13.6 µM (inactive) | 19.3 µM (inactive) | 9.82 µM (inactive) | 5.52 µM (inactive) | 18.3 µM (inactive) | 7.1 µM (inactive)
